Data published in patent publication US20260274853A1, “BIFUNCTIONAL COMPOUNDS CONTAINING PYRIMIDINE DERIVATIVES FOR DEGRADING CYCLIN-DEPENDENT KINASE 2 VIA UBIQUITIN PROTEASOME PATHWAY” (NIKANG THERAPEUTICS, INC., priority 2022, published 2026).

How the values were obtained:
CDK2 [1] = target: T1, CDK2 (Homo sapiens, UniProt P24941); experiment: Inhibition of CDK2: phospho-Rb (S807/811) HTRF measurement in OVCAR3 cells; format: cell-based; conditions: 24 h compound treatment, read-out: pRb (nM), IC50 in pRB(S807/811) assay
T1 construct: High-Throughput Measurement of Cellular Endogenous CDK2; endogenous in cells; host or cells: OVCAR3
Protocol: Phosphorylation of RB protein at S807/811 were measured using HTRF phospho-RB cellular kits (Cat #64RBS807PEG) from Cisbio.
On Day 1, OVCAR3 (dependent on CDK2) cells were seeded into 96-well tissue-culture treated plates at 20,000 cells/well in 200 μL and incubated overnight at 37° C. in CO2 atmosphere. On Day 2, the cells were treated with test compounds at concentrations from 0.3 to 10,000 nM using HP D300 digital dispenser. Twenty-four hours after compound treatment, cell culture media was removed by flicking the plate and tapping the plate against clean paper towel. Immediately 30 μL 1× lysis buffer was supplemented from the kit and the plate was incubated at room temperature on shaker for 30 min. After homogenization by pipetting up and down, 8 μL cell lysate from 96-well cell culture plate was transferred to 384-well small volume white detection plate. 2 μL premixed detection solution was added and the plate was covered with sealer. To prepare the detection solution, d2 conjugated-phospho-RB antibody and Eu-cryptate conjugated phosphor-RB antibody were diluted into detection buffer following manufacturer's instruction. Detection plates were incubated for 4 h at room temperature and read on ClarioStar (BMG Labtech) in TR-FRET mode (665 nM and 620 nM). The TR-FRET ratio (665 nM/620 nM) was plotted against the compound concentration and normalized to DMSO controls. Half maximal inhibition concentration (IC50) values are calculated with a four-parameter logistic fit using GraphPad Prism (version 8; La Jolla, CA).
In the table below, A indicates a IC50 of less than 0.1 μM; B indicates a IC50 of greater than or equal to 0.1 μM but less than 0.5 μM; C indicates a IC50 of greater than or equal to 0.5 μM but less than 1 μM; and D indicates a […] of greater than or equal to 1 μM but less than 10 μM.

CDK2 [2] = target: T1, CDK2; experiment: CDK2 HTRF assay: cellular endogenous CDK2 level in OVCAR3 cells; format: cell-based; conditions: 24 hours compound treatment; for DC50: read-out: DC50 (half maximal degradation concentration of CDK2)
Protocol: Effects of compounds on cellular CDK2 level can be monitored by a high-throughput HTRF assay or traditional Western Blot assay.
To determine half maximal degradation concentration (DC50) values of compounds, cellular CDK2 level was measured in 96-well format using HTRF total CDK2 cellular kit (Cat #64CDK2TPEG) from Cisbio.
On Day 1, OVCAR3 cells were seeded into 96-well tissue-culture treated plates at 20,000 cells/well in 200 μL and incubated overnight at 37° C. in CO2 atmosphere. On Day 2 cells were treated with compounds at concentration ranging from 0.3 to 10,000 nM using HP D300 digital dispenser. 24 hours after compound treatment, cell culture media was removed by flicking the plate and tapping the plate against clean paper towel. Immediately 30 μL 1× lysis buffer was supplemented from the kit and the plate was incubated at room temperature on shaker for 30 min. After homogenization by pipetting up and down, 8 μL cell lysate from 96-well cell culture plate was transferred to 384-well small volume white detection plate. 2 μL premixed detection solution was added and the plate was covered with sealer. To prepare the detection solution, d2 conjugated-CDK2 antibody and Eu-cryptate conjugated CDK2 antibody were diluted into detection buffer following manufacturer's instruction. Detection plates were incubated overnight at room temperature and read on ClarioStar (BMG Labtech) in TR-FRET mode (665 nM and 620 nM). The TR-FRET ratio (665 nM/620 nM) was plotted against the compound concentration and normalized to DMSO controls. Half maximal degradation concentration (DC50) values were calculated with a four-parameter logistic fit using GraphPad Prism (version 8; La Jolla, CA).
In the table below, A indicates a DC50 of less than 0.1 μM; B indicates a DC50 of greater than or equal to 0.1 μM but less than 0.5 μM; C indicates a DC50 of greater than or equal to 0.5 μM but less than 1 μM; and D indicates a DC50 of greater than or equal to 1 μM but less than 10 μM.

IC50 (CDK2 [1]) [nM]	DC50 (CDK2 [2]) [nM]	DC50 (half maximal degradation concentration of CDK2) (CDK2 [2])	SMILES
< 100	< 100	–	Cn1nc(N2CCC(=O)NC2=O)c2ccc(N3CCC(CN4CCC(S(=O)(=O)N5CCC(Nc6ncc(C(F)(F)F)c(-c7cnn(CC(F)(F)F)c7)n6)CC5)CC4)CC3)cc21 [Example 92, 1-(1-methyl-6-(4-((4-((4-((4-(1-(2,2,2-trifluoroethyl)-1H-pyrazol-4-yl)-5-(trifluoromethyl)pyrimidin-2-yl)amino)-piperidin-1-yl)sulfonyl)-piperidin-1-yl)methyl)piperidin-1-yl)-1H-indazol-3-yl)dihydropyrimidine-2,4(1H,3H)-dione]
< 100	< 100	–	Cn1nc(N2CCC(=O)NC2=O)c2ccc(C3CCN(CC4CCN(S(=O)(=O)N5CCC(Nc6ncc(C(F)(F)F)c(-c7cnn(CC(F)(F)F)c7)n6)CC5)C4)CC3)cc21 (centres unmarked) [Example 88, 1-(1-methyl-6-(1-((1-((4-((4-(1-(2,2,2-trifluoroethyl)-1H-pyrazol-4-yl)-5-(trifluoromethyl)pyrimidin-2-yl)amino)-piperidin-1-yl)sulfonyl)-pyrrolidin-3-yl)methyl)piperidin-4-yl)-1H-indazol-3-yl)dihydropyrimidine-2,4(1H,3H)-dione]
< 100	< 100	–	Cc1ncsc1-c1ccc([C@H](C)NC(=O)[C@@H]2C[C@@H](O)CN2C(=O)[C@@H](NC(=O)C2(F)CC2)C(C)(C)SCC2CCN(Cc3cccc(S(=O)(=O)N4CCC(Nc5ncc(C(F)(F)F)c(-c6cnn(CC(F)(F)F)c6)n5)CC4)c3)CC2)cc1 [Example 77, (2S,4R)-1-((R)-2-(1-fluorocyclopropane-1-carboxamido)-3-methyl-3-(((1-(3-((4-((4-(1-(2,2,2-trifluoroethyl)-1H-pyrazol-4-yl)-5-(trifluoromethyl)pyrimidin-2-yl)-amino)piperidin-1-yl)sulfonyl)-benzyl)-piperidin-4-yl)methyl)thio)-butanoyl)-4-hydroxy-N-((S)-1-(4-(4-methylthiazol-5-yl)phenyl)ethyl)-pyrrolidine-2-carboxamide]
< 100	< 100	–	O=C1CCC(NCc2cccc(S(=O)(=O)N3CCC(Nc4ncc(C(F)(F)F)c(-c5cnn(CC(F)(F)F)c5)n4)CC3)c2)C(=O)N1 (centres unmarked) [Example 68, 3-((3-((4-((4-(1-(2,2,2-trifluoroethyl)-1H-pyrazol-4-yl)-5-(trifluoromethyl)-pyrimidin-2-yl)amino)piperidin-1-yl)-sulfonyl)benzyl)amino)piperidine-2,6-dione]
< 100	< 100	–	Cn1nc(N2CCC(=O)NC2=O)c2ccc(C3CCN(CC4CCCC(S(=O)(=O)N5CCC(Nc6ncc(C(F)(F)F)c(-c7cnn(CC(F)(F)F)c7)n6)CC5)C4)CC3)cc21 (centres unmarked) [Example 89, 1-(1-methyl-6-(1-((3-((4-((4-(1-(2,2,2-trifluoroethyl)-1H-pyrazol-4-yl)-5-(trifluoromethyl)pyrimidin-2-yl)amino)-piperidin-1-yl)sulfonyl)-cyclohexyl)-methyl)piperidin-4-yl)-1H-indazol-3-yl)dihydropyrimidine-2,4(1H,3H)-dione]
100 to 500	< 100	–	C[C@@H]1CN(S(=O)(=O)c2cccc(CN3CCC(c4ccc5c(N6CCC(=O)NC6=O)nn(C)c5c4)CC3)c2)CC[C@@H]1Nc1ncc(C(F)(F)F)c(-c2cnn(CC(F)(F)F)c2)n1 [Example 34, 1-(1-methyl-6-(1-(3-(((3R,4S)-3-methyl-4-((4-(1-(2,2,2-trifluoroethyl)-1H-pyrazol-4-yl)-5-(trifluoromethyl)-pyrimidin-2-yl)amino)piperidin-1-yl)-sulfonyl)benzyl)piperidin-4-yl)-1H-indazol-3-yl)dihydropyrimidine-2,4(1H,3H)-dione]
100 to 500	< 100	–	O=C1CCC(NS(=O)(=O)N2CCC(Nc3ncc(C(F)(F)F)c(-c4cnn(CC(F)(F)F)c4)n3)CC2)C(=O)N1 (centres unmarked) [Example 83, N-(2,6-dioxopiperidin-3-yl)-4-((4-(1-(2,2,2-trifluoroethyl)-1H-pyrazol-4-yl)-5-(trifluoromethyl)pyrimidin-2-yl)-amino)piperidine-1-sulfonamide]
< 100	< 100	–	Cc1ncsc1-c1ccc([C@H](C)NC(=O)[C@@H]2C[C@@H](O)CN2C(=O)[C@@H](NC(=O)CC2CCN(Cc3cccc(S(=O)(=O)N4CCC(Nc5ncc(C(F)(F)F)c(-c6cnn(CC(F)(F)F)c6)n5)CC4)c3)CC2)C(C)(C)C)cc1 [Example 62, (2S,4R)-1-((S)-3,3-dimethyl-2-(2-(1-(3-((4-((4-(1-(2,2,2-trifluoroethyl)-1H-pyrazol-4-yl)-5-(trifluoromethyl)-pyrimidin-2-yl)amino)piperidin-1-yl)-sulfonyl)benzyl)piperidin-4-yl)-acetamido)butanoyl)-4-hydroxy-N-((S)-1-(4-(4-methylthiazol-5-yl)phenyl)-ethyl)pyrrolidine-2-carboxamide]
< 100	< 100	–	O=C1CCC(Nc2ccc(C3CCN(Cc4cccc(S(=O)(=O)N5CCC(Nc6ncc(C(F)(F)F)c(-c7cnn(CC(F)(F)F)c7)n6)CC5)c4)CC3)cc2)C(=O)N1 (centres unmarked) [Example 11, 3-((4-(1-(3-((4-((4-(1-(2,2,2-trifluoro-ethyl)-1H-pyrazol-4-yl)-5-(trifluoro-methyl)pyrimidin-2-yl)amino)-piperidin-1-yl)sulfonyl)benzyl)piperidin-4-yl)-phenyl)amino)-piperidine-2,6-dione]
< 100	< 100	–	O=C1CCC(c2ccc(N3CCN(Cc4cccc(S(=O)(=O)N5CCC(Nc6ncc(C(F)(F)F)c(-c7cnn(CC(F)(F)F)c7)n6)CC5)c4)CC3)c(F)c2)C(=O)N1 (centres unmarked) [Example 14, 3-(3-fluoro-4-(4-(3-((4-((4-(1-(2,2,2-trifluoroethyl)-1H-pyrazol-4-yl)-5-(trifluoromethyl)pyrimidin-2-yl)-amino)piperidin-1-yl)sulfonyl)benzyl)-piperazin-1-yl)phenyl)piperidine-2,6-dione]
100 to 500	< 100	–	O=C1CCN(c2ccc(N3CCN(Cc4cccc(S(=O)(=O)N5CC[C@@H](Nc6ncc(C(F)(F)F)c(-c7cnn(CC(F)(F)F)c7)n6)[C@@H](F)C5)c4)CC3)cc2)C(=O)N1 (racemic) [Example 28, Rac-1-(4-(4-(3-(((3R,4S)-3-fluoro-4-((4-(1-(2,2,2-trifluoroethyl)-1H-pyrazol-4-yl)-5-(trifluoromethyl)-pyrimidin-2-yl)amino)piperidin-1-yl)sulfonyl)-benzyl)piperazin-1-yl)phenyl)dihydro-pyrimidine-2,4(1H,3H)-dione]
< 100	< 100	–	CC(Cc1cccc(S(=O)(=O)N2CCC(Nc3ncc(C(F)(F)F)c(-c4cnn(CC(F)(F)F)c4)n3)CC2)c1)N1CCC(c2ccc3c(N4CCC(=O)NC4=O)nn(C)c3c2)CC1 (centres unmarked) [Example 93, 1-(1-methyl-6-(1-(1-(3-((4-((4-(1-(2,2,2-trifluoroethyl)-1H-pyrazol-4-yl)-5-(trifluoromethyl)pyrimidin-2-yl)amino)-piperidin-1-yl)sulfonyl)-phenyl)propan-2-yl)piperidin-4-yl)-1H-indazol-3-yl)dihydropyrimidine-2,4(1H,3H)-dione]
1000 to 10000	–	no curve	O=C1CCC(N2C(=O)c3cc(F)c(N4CCN(Cc5cccc(S(=O)(=O)N6CCC(Nc7nccc(-c8cnn(CC(F)(F)F)c8)n7)CC6)c5)CC4)cc3C2=O)C(=O)N1 (centres unmarked) [Example 17, 2-(2,6-dioxopiperidin-3-yl)-5-fluoro-6-(4-(3-((4-((4-(1-(2,2,2-trifluoroethyl)-1H-pyrazol-4-yl)pyrimidin-2-yl)amino)-piperidin-1-yl)sulfonyl)benzyl)-piperazin-1-yl)isoindoline-1,3-dione]
